Measurements taken from patent US6355289B1, “Method for preserving tortillas made from corn or wheat” (Kemin Industries, Inc., priority 1996, dated 2002).

Tests used:
[1] = system: bacteria, mold, and yeast; test: Carbon dioxide production of tortillas from treated dough; conditions: antimicrobial added to propionic/phosphoric acid preparation
Source text: In the laboratory, shelf life of varying formulations of tortillas can be compared by monitoring the output of carbon dioxide produced by the bacteria, mold, and yeast.
Tortillas were then manufactured from the treated dough.

[2] = food pH 5.4; cited from earlier work

SMILES	effectiveness in controlling fermented odor / preventing spoilage [1]	acid undissociated [2] [%]
O=C(O)c1ccccc1 [benzoic acid]	best qualities for preventing spoilage	7.75
CCC(=O)O [propionic acid]		20
